Experiment: Photochromic properties of the compound in the (co)polymer matrix under xenon lamp exposure
Format: physicochemical
Settings: for color exhibited: color of the photochromic compound; for λmax (nm): same conditions as compound (I): 0.05% by weight in matrix; for T0 (%) / DO induced: same conditions as compound (I); for DO induced: xenon lamp (40.000 lux)
Method: The matrix is based on a short-chain (meth)acrylate difunctional monomer and a long-chain alkenic difunctional monomer. Used at 0.05% by weight within the matrix (conditioned under 2 mm thickness), the compound has led to the results shown in the Table below.
Compounds C1, C2, C3, other naphthopyrans according to the application WO-A-94 22850, are identified by their developed formula in the Example part of the text. All compounds (II), C1, C2, C3 were tested under the same conditions as those indicated above with reference to compound (I).
The half-time of fading : t1/2, expressed in seconds is specified below for each one of the compounds. This parameter characterizes the kinetics of the return to the initial state (after darkening)(see its exact definition given earlier in the present text with reference to the Table grouping the properties of compound (I)).

[1] = 0.05% by weight within the matrix, 2 mm thickness
[2] = optical density after minus before exposure under a xenon lamp (40.000 lux), 0.05% by weight in matrix, 2 mm
[3] = transmission before exposure, 0.05% by weight in matrix, 2 mm

Structure (SMILES) | color exhibited | λmax (nm) (2 mm) | T0 (%) (transmission before exposure) | DO induced | λmax 1 [1] | λmax 2 [1] | DOinduced** at 489 nm [2] | DOinduced** at 588 nm [2] | T0* at 489 nm [3] | T0* at 588 nm [3]
COc1ccc(C2(c3ccccc3)C=Cc3c(cc(N4CCOCC4)c4ccccc34)O2)cc1 (centres unmarked) [Compound (II), 3-(p-methoxyphenyl)-3-phenyl-6-morpholino-3H-naphtho-[2,1-b]pyran] | yellow | 439 nm | 79% | 1.65 | – | – | – | – | – | –
COc1ccc(C2(c3ccc(N(C)C)cc3)C=Cc3c(C)cc4c(OC)cc(OC)cc4c3O2)cc1 (centres unmarked) [Compound (I), 2-(p-dimethylaminophenyl)-2-(p-methoxyphenyl)-5-methyl-7,9-dimethoxy-[2H]-naphtho[1,2-b]pyran] | violet | – | – | – | 489 nm | 588 nm | 0.58 | 0.94 | 85% | 86%
COc1ccc(C2(c3ccc(C(F)(F)F)cc3)C=Cc3c(cc(N4CCOCC4)c4ccccc34)O2)cc1 (centres unmarked) [Compound C2, reference compound] | – | 430 nm | 68% | 1.60 | – | – | – | – | – | –
COc1ccc(C2(c3ccccc3)C=Cc3c(cc(N4CCCCC4)c4ccccc34)O2)cc1 (centres unmarked) [Compound C3, reference compound] | – | 430 nm | 79% | 1.77 | – | – | – | – | – | –
COc1ccc(C2(c3ccc(OC)cc3)C=Cc3c(cc(N4CCOCC4)c4ccccc34)O2)cc1 [Compound C1, reference compound] | – | 456 nm | 74% | 1.37 | – | – | – | – | – | –

Source: EP0980535B1, “PHOTOCHROMIC COMPOSITIONS, PHOTOCHROMIC COMPOUNDS (CO)POLYMER MATRICES” (Corning S.A., priority 1997, dated 1998)
